Data: DBAASP
≈ marks a conversion by molar mass, not a printed value. One block for each compound: values may come before it.

Experiments:
Test in all cases: ≥ marks a high value that may be exact or a test limit, other limits are often not marked, values filed in µg/mL are converted to µM
[1] = tested on: Bacillus subtilis ATCC 6051
[2] = tested on: Escherichia coli NEB5alpha
[3] = tested on: Escherichia coli ATCC 25922
[4] = tested on: Klebsiella pneumoniae ATCC 700603
[5] = tested on: Pseudomonas aeruginosa Pa1-SA2
[6] = tested on: Pseudomonas aeruginosa PAO1
[7] = tested on: Salmonella enterica subsp. enterica serovar Typhimurium ATCC 14028
[8] = tested on: Pseudomonas aeruginosa Pa4-SA2
[9] = tested on: Pseudomonas aeruginosa ATCC 27853
[10] = tested on: Staphylococcus aureus ATCC 29313
[11] = tested on: Pseudomonas aeruginosa PA006
[12] = tested on: Escherichia coli ATCC 11219
[13] = tested on: Klebsiella pneumoniae ATCC 10031
[14] = tested on: Pseudomonas aeruginosa ATCC 13388
[15] = tested on: Staphylococcus aureus ATCC 6538
Streptococcus agalactiae = tested on: Streptococcus agalactiae
Candida albicans = tested on: Candida albicans
[16] = tested on: Mycobacterium tuberculosis H37Rv
[17] = tested on: Pseudomonas aeruginosa ATCC 9027
[18] = tested on: Staphylococcus aureus ATCC 25923
[19] = tested on: Mycobacterium tuberculosis
Candida glabrata = tested on: Candida glabrata
[20] = tested on: Kocuria rhizophila DSM 348
[21] = tested on: Bacillus subtilis DSM 347
[22] = tested on: Franconibacter helveticus DSM 18396
[23] = tested on: Escherichia coli DH5alpha
[24] = tested on: Staphylococcus aureus IS37#
[25] = tested on: Enterobacter cloacae ATCC 13047
[26] = tested on: Candida albicans ATCC 2002
[27] = tested on: Staphylococcus aureus IS10#
[28] = tested on: Enterococcus faecalis ATCC 29212
Escherichia coli IS117# = tested on: Escherichia coli IS117#
[29] = tested on: Candida albicans ATCC 90028
Shigella dysenteriae = tested on: Shigella dysenteriae
[30] = tested on: Pseudomonas aeruginosa CMCCB 1010
Escherichia coli IS37# = tested on: Escherichia coli IS37#
[31] = tested on: Candida parapsilosis ATCC 22019
[32] = tested on: Escherichia coli K12 MG1655
[33] = tested on: Staphylococcus aureus 68 HER 1049

SMILES: CC[C@H](C)[C@H](NC(=O)[C@@H]1CCCN1C(=O)[C@H](Cc1cnc[nH]1)NC(=O)[C@H](CCCCN)NC(=O)[C@@H]1CCCN1C(=O)[C@@H](N)CCCN=C(N)N)C(=O)N[C@@H](CCCCN)C(=O)N[C@@H](Cc1cnc[nH]1)C(=O)N[C@@H](CCC(N)=O)C(=O)NCC(=O)N[C@@H](CC(C)C)C(=O)N1CCC[C@H]1C(=O)N[C@@H](CCC(N)=O)C(=O)N[C@@H](CCC(=O)O)C(=O)N[C@H](C(=O)N[C@@H](CC(C)C)C(=O)N[C@@H](CC(N)=O)C(=O)N[C@@H](CCC(=O)O)C(=O)N[C@@H](CC(N)=O)C(=O)N[C@@H](CC(C)C)C(=O)N[C@@H](CC(C)C)C(=O)N[C@@H](CCCN=C(N)N)C(=O)N[C@@H](Cc1ccccc1)C(=O)N[C@@H](Cc1ccccc1)C(=O)O)C(C)C [RPKHPIKHQGLPQEVLNENLLRFF]
MIC [1]: 23.6 µM (≈ 68.8 µg/mL)
MIC [2]: ≥ 47.2 µM
MIC [3]: 189 µM (≈ 550 µg/mL)

SMILES: CC[C@H](C)[C@H](NC(=O)CN)C(=O)N[C@@H](Cc1cnc[nH]1)C(=O)N[C@@H](C)C(=O)N[C@H](C(=O)N[C@@H](CC(C)C)C(=O)N[C@@H](CCCCN)C(=O)N[C@@H](Cc1ccc(O)cc1)C(=O)NCC(=O)N[C@@H](CCCCN)C(=O)N1CCC[C@H]1C(=O)N[C@@H](CO)C(N)=O)[C@@H](C)CC [GIHAILKYGKPS]
MIC [12]: ≥ 50 µM
MIC [7]: > 50 µM
MIC [13]: 30 µM (≈ 38.5 µg/mL)
MIC [14]: ≥ 50 µM
MIC [15]: 5 µM (≈ 6.41 µg/mL)

SMILES: CC[C@H](C)[C@H](NC(=O)[C@H](CC(C)C)NC(=O)[C@@H]1CCCN1C(=O)[C@H](Cc1ccccc1)NC(=O)[C@@H](N)Cc1ccccc1)C(=O)N[C@@H](C)C(=O)NCC(=O)N[C@@H](CC(C)C)C(=O)N[C@@H](C)C(=O)N[C@@H](C)C(=O)N[C@@H](CCCN=C(N)N)C(=O)N[C@@H](Cc1ccccc1)C(=O)N[C@@H](CC(C)C)C(=O)N1CCC[C@H]1C(=O)N[C@@H](CCCCN)C(=O)N[C@H](C(=O)N[C@@H](Cc1ccccc1)C(=O)N[C@H]1CSSC[C@@H](C(=O)O)NC(=O)[C@H](CCCN=C(N)N)NC(=O)[C@H](CCCCN)NC(=O)[C@H]([C@@H](C)O)NC(=O)[C@H]([C@@H](C)CC)NC(=O)[C@H](CO)NC1=O)[C@@H](C)CC [FFPLIAGLAARFLPKIFCSITKRC]
MIC [24]: 1.84 µM (≈ 5 µg/mL)
MIC [25]: 0.921 µM (≈ 2.5 µg/mL)
MIC [4]: 0.921 µM (≈ 2.5 µg/mL)
MIC [26]: 1.84 µM (≈ 5 µg/mL)
MIC [27]: 3.69 µM (≈ 9.99 µg/mL)
MIC [28]: 1.84 µM (≈ 5 µg/mL)
MIC [9]: 3.69 µM (≈ 9.99 µg/mL)
MIC [3]: 0.368 µM (≈ 0.999 µg/mL)
MIC (Escherichia coli IS117#): 3.69 µM (≈ 9.99 µg/mL)
MIC [29]: 3.69 µM (≈ 9.99 µg/mL)
MIC (Shigella dysenteriae): 3.69 µM (≈ 9.99 µg/mL)
MIC [30]: 1.84 µM (≈ 5 µg/mL)
MIC (Escherichia coli IS37#): 0.921 µM (≈ 2.5 µg/mL)
MIC [18]: 1.84 µM (≈ 5 µg/mL)
MIC [31]: 7.37 µM (≈ 20 µg/mL)

SMILES: CC[C@H](C)[C@H](NC(=O)[C@H](CCCN=C(N)N)NC(=O)[C@H](CCCCN)NC(=O)[C@H](Cc1c[nH]c2ccccc12)NC(=O)[C@H](CCCN=C(N)N)NC(=O)[C@H](CCCCN)NC(=O)[C@H](Cc1c[nH]c2ccccc12)NC(=O)[C@@H](N)Cc1c[nH]c2ccccc12)C(=O)N[C@@H](CCCN=C(N)N)C(=O)N[C@@H](CCCN=C(N)N)C(=O)N[C@H](C(=O)N[C@@H](Cc1ccccc1)C(=O)N[C@@H](CCSC)C(=O)N[C@@H](CCSC)C(=O)N[C@H](C(=O)O)C(C)C)[C@@H](C)CC [WWKRWKRIRRIFMMV]
MIC [32]: 1.82 µM (≈ 4 µg/mL)
MIC [33]: 3.65 µM (≈ 8 µg/mL)

Continued, in another order:

MIC [4]: > 307 µM
MIC [5]: ≥ 98.1 µM
MIC [6]: 196 µM (≈ 512 µg/mL)
MIC [7]: > 307 µM
MIC [8]: ≥ 49.1 µM
MIC [9]: 392 µM (≈ 1020 µg/mL)
MIC [3]: > 307 µM
MIC [11]: 6.13 µM (≈ 16 µg/mL)
SMILES: CC[C@H](C)[C@H](NC(=O)[C@H](CCCCN)NC(=O)CNC(=O)[C@@H](NC(=O)[C@H](C)NC(=O)[C@H](Cc1cnc[nH]1)NC(=O)[C@H](C)NC(=O)[C@@H](NC(=O)[C@H](CC(C)C)NC(=O)[C@H](CCC(N)=O)NC(=O)[C@H](CCCCN)NC(=O)CNC(=O)[C@H](C)NC(=O)[C@H](CC(=O)O)NC(=O)[C@H](CCCCN)NC(=O)[C@@H](NC(=O)[C@@H](NC(=O)[C@H](CC(=O)O)NC(=O)[C@H](Cc1ccccc1)NC(=O)[C@@H](NC(=O)CN)C(C)C)[C@@H](C)CC)[C@@H](C)CC)C(C)C)[C@@H](C)O)C(=O)N[C@@H](C)C(=O)N[C@@H](CCC(=O)O)C(=O)N[C@@H](CCCCN)C(=O)N[C@H](C(N)=O)C(C)C [GVFDIIKDAGKQLVAHATGKIAEKV]
MIC [10]: ≥ 307 µM

MIC (Streptococcus agalactiae): 15 µM (≈ 39.4 µg/mL)
MIC (Candida albicans): 12.5 µM (≈ 32.8 µg/mL)
MIC [16]: 21.4 µM (≈ 56.2 µg/mL)
MIC [17]: 15 µM (≈ 39.4 µg/mL)
MIC [3]: 24 µM (≈ 63 µg/mL)
MIC [18]: 10 µM (≈ 26.2 µg/mL)
MIC [19]: 30.5 µM (≈ 80 µg/mL)
MIC (Candida glabrata): ≥ 50 µM
SMILES: CC[C@H](C)[C@H](NC(=O)[C@H](CC(C)C)NC(=O)[C@H](CO)NC(=O)[C@@H]1CCCN1C(=O)[C@@H](NC(=O)[C@H](C)NC(=O)[C@H](CCCCN)NC(=O)[C@H](CCSC)NC(=O)[C@H](C)NC(=O)[C@H](CC(C)C)NC(=O)[C@H](CCCCN)NC(=O)CNC(=O)[C@H](CC(C)C)NC(=O)[C@H](Cc1ccccc1)NC(=O)CNC(=O)[C@H](Cc1c[nH]c2ccccc12)NC(=O)[C@@H](N)Cc1ccccc1)C(C)C)C(=O)NCC(=O)NCC(=O)N[C@@H](CC(N)=O)C(=O)N[C@@H](CCCCN)C(=O)N[C@@H](CO)C(=O)N[C@@H](CO)C(=O)N[C@@H](CO)C(=O)N[C@@H](CCCCN)C(=O)O [FWGFLGKLAMKAVPSLIGGNKSSSK]

MIC [20]: ≥ 64 µM
MIC [21]: 8 µM (≈ 19.5 µg/mL)
MIC [22]: ≥ 64 µM
MIC [23]: ≥ 64 µM
SMILES: CC[C@H](C)[C@H](NC(=O)CN)C(=O)NCC(=O)N[C@@H](CCCCN)C(=O)N[C@@H](Cc1ccccc1)C(=O)N[C@@H](CC(C)C)C(=O)N[C@@H](Cc1cnc[nH]1)C(=O)N[C@@H](CO)C(=O)N[C@@H](C)C(=O)N[C@@H](CCCCN)C(=O)N[C@@H](CCCCN)C(=O)N[C@@H](Cc1ccccc1)C(=O)NCC(=O)N[C@@H](CCCCN)C(=O)N[C@@H](C)C(=O)N[C@@H](Cc1ccccc1)C(=O)N[C@@H](C)C(=O)NCC(=O)N[C@@H](CCC(=O)O)C(=O)N[C@H](C(=O)N[C@@H](CCSC)C(=O)N[C@@H](CC(N)=O)C(=O)N[C@@H](CO)C(=O)O)[C@@H](C)CC [GIGKFLHSAKKFGKAFAGEIMNS]
